Measured values reported in ChEMBL document CHEMBL4118193, “1,2,3,4,6-Penta-O-galloyl-β-d-glucose suppresses colon cancer through induction of tumor suppressor” (Bioorg Med Chem Lett, 2018).
The source made the active and inactive calls. The rule behind the calls is not given here.

Columns and labels:
HCT-116 [1] = test: Induction of apoptosis in human HCT116 cells assessed as Bcl-2 protein level at 2.5 uM after 48 hrs by Western blot method relative to beta-actin; type: functional
HT-29 [2] = test: Induction of apoptosis in human HT-29 cells assessed as in p53 protein level at 2.5 uM after 48 hrs by Western blot method relative to beta-actin; type: functional
HT-29 [3] = test: Induction of apoptosis in human HT-29 cells assessed as cyclin E protein level at 2.5 uM after 48 hrs by Western blot method relative to beta-actin; type: functional
HT-29 [4] = test: Cell cycle arrest in human HT-29 cells assessed as accumulation at G0/G1 phase at 2.5 uM after 48 hrs (reference value: 53.9%); type: functional
HCT-116 [5] = test: Induction of apoptosis in human HCT116 cells assessed as cyclin E protein level at 10 uM after 48 hrs by Western blot method relative to beta-actin; type: functional
HCT-116 [6] = test: Induction of apoptosis in human HCT116 cells assessed as live cells at 2.5 uM after 48 hrs by Annexin-V and dead cell assay (reference value: 96.75%); type: functional
HT-29 [7] = test: Induction of apoptosis in human HT-29 cells after 48 hrs by Annexin-V and dead cell assay; type: functional, cell-based
HT-29 [8] = test: Induction of apoptosis in human HT-29 cells assessed as p53 protein level at 1 uM after 48 hrs by Western blot method relative to beta-actin; type: functional
HCT-116 [9] = test: Induction of apoptosis in human HCT116 cells assessed as caspase-3 protein level at 10 uM after 48 hrs by Western blot method relative to beta-actin; type: functional
HCT-116 [10] = test: Induction of apoptosis in human HCT116 cells assessed as cleaved caspase-3 protein level at 1 uM after 48 hrs by Western blot method relative to caspase-3; type: functional
HCT-116 [11] = test: Induction of apoptosis in human HCT116 cells assessed as live cells at 5 uM after 48 hrs by Annexin-V and dead cell assay (reference value: 96.75%); type: functional
HT-29 [12] = test: Induction of apoptosis in human HT-29 cells assessed as in p53 protein level at 10 uM after 48 hrs by Western blot method relative to beta-actin; type: functional
HCT-116 [13] = test: Induction of apoptosis in human HCT116 cells assessed as Bcl-2 protein level at 10 uM after 48 hrs by Western blot method relative to beta-actin; type: functional
HT-29 [14] = test: Induction of apoptosis in human HT-29 cells assessed as caspase-3 protein level at 5 uM after 48 hrs by Western blot method relative to beta-actin; type: functional
HT-29 [15] = test: Cell cycle arrest in human HT-29 cells assessed as accumulation at G0/G1 phase at 1 uM after 48 hrs (reference value: 53.9%); type: functional
HT-29 [16] = test: Induction of apoptosis in human HT-29 cells assessed as p21 protein level at 2.5 uM after 48 hrs by Western blot method relative to beta-actin; type: functional
HCT-116 [17] = test: Induction of apoptosis in human HCT116 cells assessed as early apoptotic cells at 10 uM after 48 hrs by Annexin-V and dead cell assay (reference value: 1.70%); type: functional
HCT-116 [18] = test: Induction of apoptosis in human HCT116 cells assessed as Bcl-2 protein level at 5 uM after 48 hrs by Western blot method relative to beta-actin; type: functional
HCT-116 [19] = test: Induction of apoptosis in human HCT116 cells assessed as CDK2 protein level at 10 uM after 48 hrs by Western blot method relative to beta-actin; type: functional
HCT-116 [20] = test: Anticlonogenic activity against human HCT116 cells assessed as inhibition of colony formation after 4 to 5 days by crystal violet staining-based assay; type: functional, cell-based
HCT-116 [21] = test: Cell cycle arrest in human HCT116 cells assessed as accumulation at G0/G1 phase at 2.5 uM after 48 hrs (reference value: 38.5%); type: functional
HCT-116 [22] = test: Induction of apoptosis in human HCT116 cells assessed as p21 protein level at 2.5 uM after 48 hrs by Western blot method relative to beta-actin; type: functional
HT-29 [23] = test: Induction of apoptosis in human HT-29 cells assessed as cyclin E protein level at 5 uM after 48 hrs by Western blot method relative to beta-actin; type: functional
HCT-116 [24] = test: Induction of apoptosis in human HCT116 cells assessed as live cells at 1 uM after 48 hrs by Annexin-V and dead cell assay (reference value: 96.75%); type: functional
HT-29 [25] = test: Induction of apoptosis in human HT-29 cells assessed as CDK2 protein level at 5 uM after 48 hrs by Western blot method relative to beta-actin; type: functional
HT-29 [26] = test: Cell cycle arrest in human HT-29 cells assessed as accumulation at G2/M phase at 1 uM after 48 hrs (reference value: 14.7%); type: functional
HT-29 [27] = test: Cytotoxicity against human HT-29 cells at 10 uM after 48 hrs by CytoTox-96 non-radioactive assay; type: functional, cell-based
HT-29 [28] = test: Induction of apoptosis in human HT-29 cells assessed as cleaved caspase-3 protein level at 5 uM after 48 hrs by Western blot method relative to caspase-3; type: functional
HCT-116 [29] = test: Induction of apoptosis in human HCT116 cells assessed as necrotic cells at 2.5 uM after 48 hrs by Annexin-V and dead cell assay (reference value: 0.10%); type: functional
HT-29 [30] = test: Cytotoxicity against human HT-29 cells at 1 to 10 uM after 48 hrs by CytoTox-96 non-radioactive assay; type: functional, cell-based
HT-29 [31] = test: Induction of apoptosis in human HT-29 cells assessed as caspase-3 protein level at 1 uM after 48 hrs by Western blot method relative to beta-actin; type: functional
HCT-116 [32] = test: Induction of apoptosis in human HCT116 cells assessed as DNA fragmentation at 1 to 10 uM after 48 hrs by ELISA; type: functional, cell-based
HCT-116 [33] = test: Induction of apoptosis in human HCT116 cells assessed as late apoptotic cells at 5 uM after 48 hrs by Annexin-V and dead cell assay (reference value: 1.45%); type: functional
HCT-116 [34] = test: Cell cycle arrest in human HCT116 cells assessed as accumulation at subG1 phase after 48 hrs; type: functional, cell-based
HT-29 [35] = test: Cell cycle arrest in human HT-29 cells assessed as accumulation at S phase at 5 uM after 48 hrs (reference value: 9.7%); type: functional
HCT-116 [36] = test: Induction of apoptosis in human HCT116 cells assessed as p21 protein level at 1 uM after 48 hrs by Western blot method relative to beta-actin; type: functional
HCT-116 [37] = test: Induction of apoptosis in human HCT116 cells assessed as increase in caspase-3/7 activity at 1 to 10 uM measured after 48 hrs by Caspase-Glo 3/7 assay; type: functional, cell-based
HCT-116 [38] = test: Induction of apoptosis in human HCT116 cells assessed as CDK2 protein level at 1 uM after 48 hrs by Western blot method relative to beta-actin; type: functional
HCT-116 [39] = test: Induction of apoptosis in human HCT116 cells assessed as live cells at 10 uM after 48 hrs by Annexin-V and dead cell assay (reference value: 96.75%); type: functional
HT-29 [40] = test: Induction of apoptosis in human HT-29 cells assessed as DNA fragmentation at 1 to 10 uM after 48 hrs by ELISA; type: functional, cell-based
HT-29 [41] = test: Induction of apoptosis in human HT-29 cells assessed as CDK2 protein level at 1 uM after 48 hrs by Western blot method relative to beta-actin; type: functional

SMILES: O=C(OC[C@H]1O[C@@H](OC(=O)c2cc(O)c(O)c(O)c2)[C@H](OC(=O)c2cc(O)c(O)c(O)c2)[C@@H](OC(=O)c2cc(O)c(O)c(O)c2)[C@@H]1OC(=O)c1cc(O)c(O)c(O)c1)c1cc(O)c(O)c(O)c1 [PENTAGALLOYL GLUCOSE]
- fold change (FC) (HCT-116 [1]): 1.8
- fold change (FC) (HT-29 [2]): 4.4
- fold change (FC) (HT-29 [3]): 0.9
- Activity (HT-29 [4]): 47.2%
- fold change (FC) (HCT-116 [5]): 0.5
- Activity (HCT-116 [6]): 97.55%
- Activity (HT-29 [7]): Dose-dependent effect
- fold change (FC) (HT-29 [8]): 0.7
- fold change (FC) (HCT-116 [9]): 488.4
- fold change (FC) (HCT-116 [10]): 1
- Activity (HCT-116 [11]): 93.35%
- fold change (FC) (HT-29 [12]): 6
- fold change (FC) (HCT-116 [13]): 0.7
- fold change (FC) (HT-29 [14]): 5.9
- Activity (HT-29 [15]): 51.3%
- fold change (FC) (HT-29 [16]): 2.8
- Activity (HCT-116 [17]): 3.2%
- fold change (FC) (HCT-116 [18]): 1.2
- fold change (FC) (HCT-116 [19]): 0.3
- Activity (HCT-116 [20]): Dose-dependent effect
- Activity (HCT-116 [21]): 34%
- fold change (FC) (HCT-116 [22]): 1.4
- fold change (FC) (HT-29 [23]): 0.8
- Activity (HCT-116 [24]): 98.25%
- fold change (FC) (HT-29 [25]): 0.4
- Activity (HT-29 [26]): 14.8%
- Activity (HT-29 [27]): Active
- fold change (FC) (HT-29 [28]): 7
- Activity (HCT-116 [29]): 0.1%
- Activity (HT-29 [30]): Active
- fold change (FC) (HT-29 [31]): 1.6
- Activity (HCT-116 [32]): Active
- Activity (HCT-116 [33]): 4.35%
- Activity (HCT-116 [34]): Dose-dependent effect
- Activity (HT-29 [35]): 14.3%
- fold change (FC) (HCT-116 [36]): 1.3
- Activity (HCT-116 [37]): Active
- fold change (FC) (HCT-116 [38]): 0.9
- Activity (HCT-116 [39]): 90.45%
- Activity (HT-29 [40]): Active
- fold change (FC) (HT-29 [41]): 0.9
